Assay results: ChEMBL document CHEMBL1152099, “C5-piperazinyl-1,4-benzodiazepines, water-soluble, orally bioa vailable CCKB/gastrin receptor antagonists” (Bioorg Med Chem Lett, 1995)
Converted amounts (≈) assume the structure as drawn.

Legend:
[1] = target: T1, Cholecystokinin receptor type A (Rattus norvegicus, UniProt P30551); assay: Displacement of [125I]-BH CCK-8S from Cholecystokinin type A receptor in rat pancreas
T1 sequence (P30551 whole entry): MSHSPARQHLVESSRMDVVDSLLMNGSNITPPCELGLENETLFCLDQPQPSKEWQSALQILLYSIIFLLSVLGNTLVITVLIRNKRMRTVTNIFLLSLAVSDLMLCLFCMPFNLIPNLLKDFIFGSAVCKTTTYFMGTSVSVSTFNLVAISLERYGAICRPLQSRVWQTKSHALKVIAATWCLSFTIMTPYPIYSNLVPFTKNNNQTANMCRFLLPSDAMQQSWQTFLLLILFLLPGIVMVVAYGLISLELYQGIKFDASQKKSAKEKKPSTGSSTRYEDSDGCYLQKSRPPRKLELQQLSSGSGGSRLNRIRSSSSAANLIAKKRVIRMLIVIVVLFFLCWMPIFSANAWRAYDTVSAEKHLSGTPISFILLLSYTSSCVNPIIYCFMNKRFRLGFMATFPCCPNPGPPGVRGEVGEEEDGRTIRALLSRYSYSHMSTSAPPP

[2] = target: T2, Cholecystokinin receptor type A (Rattus norvegicus) (UniProt P30551); assay: Compound was tested for its binding affinity by measuring the displacement of [125I]-BH CCK-8S from CCKA receptor in rat pancreas at a concentration of 3000 nM
T2 sequence (whole entry): T1 sequence (P30551 whole entry)

[3] = Tmax was determined; assay type: ADME, organism-based; conditions: rat, in vivo
[4] = Plasma half-life was determined; assay type: ADME, organism-based; conditions: rat
Rattus norvegicus = species: Rattus norvegicus; assay: Compound was tested for its ability to block pentagastrin-induced single cell firing rate of rat ventromedial hyphalamic (VMH) neurons; assay type: functional
[5] = Maximum plasma drug concentration was determined; assay type: ADME, organism-based; conditions: rat
[6] = Compound was tested for solubility in water; assay type: ADME; conditions: read-out: S
[7] = Bioavailability; assay type: ADME, organism-based; conditions: rat, in vivo

SMILES	IC50 [1] [µM]	inhibition [2] [%]	other results
CCCN1C(=O)C(NC(=O)Nc2cccc(CC)c2)N=C(N2CCN(C)CC2)c2ccccc21 (configuration not stated)	> 3	46	–
Cc1cccc(NC(=O)N[C@@H]2N=C(c3ccccc3)c3ccccc3N3C[C@H](C)N=C23)c1	1.56	–	–
Cc1cccc(NC(=O)NC2N=C(N3CCNCC3)c3ccccc3N(C)C2=O)c1 (configuration not stated)	> 3	3	–
CCCN1C(=O)[C@H](NC(=O)Nc2cccc(C)c2)N=C(N2CCN(C)CC2)c2ccccc21	> 3	11	Tmax [3]: 5 min; half-life [4]: 55 min; Kb (Rattus norvegicus): 0.0018 µM; Cmax [5]: 469 ng/mL; solubility [6]: 600 µg/mL (≈ 1340 µM); bioavailability [7]: 51%
Cc1cccc(NC(=O)NC2N=C(N3CCN(C(=O)OC(C)(C)C)CC3)c3ccccc3N(C)C2=O)c1 (configuration not stated)	> 3	0	–
CCCN1C(=O)C(NC(=O)Nc2cccc(OC)c2)N=C(N2CCN(C)CC2)c2ccccc21 (configuration not stated)	> 3	15	–

The remaining compounds from weak to strong by IC50 [1], led by results:

IC50 [1] [µM]	inhibition [2] [%]	SMILES	other results
5.31	–	CCCc1cccc(NC(=O)NC2N=C(N3CCN(C)CC3)c3ccccc3N(CCC)C2=O)c1 (configuration not stated)	–
4.26	–	Cc1cccc(NC(=O)NC2N=C(N3CCN(C)CC3)c3ccccc3N(C)C2=O)c1 (configuration not stated)	–
3.8	–	CCCN1C(=O)C(NC(=O)Nc2cccc(C(F)(F)F)c2)N=C(N2CCN(C)CC2)c2ccccc21 (configuration not stated)	–
3.2	–	CCCN1C(=O)C(NC(=O)Nc2cccc(C)c2)N=C(N2CCN(C)CC2)c2ccccc21 (configuration not stated)	–
1.9	–	CCCN1C(=O)[C@@H](NC(=O)Nc2cccc(C)c2)N=C(N2CCN(C)CC2)c2ccccc21	–
